In test [1] the test system is apo B secretion in HepG2 cells. The test is described as follows: Inhibition of apo B secretion in the HepG2 human cell line (sandwich ELISA). The test is classed as cell-based. The conditions noted are these: 24 hours incubation, culture supernatant, ELISA specific for human apo B, read-out: IC50 (concentration that produces a 50% inhibition of apo B secretion in the HepG2 cells). The protocol:
Analysis of the secretion of apo B in the HepG2 human cell line:
The activity of a compound according to the invention can be evaluated by measuring the inhibition of apo B secretion in HepG2 cells.
The HepG2 cells (ECACC—No. 85011430) are used as model in the study of the in vitro hepatic secretion of lipoproteins (Dixon J. and Ginsberg H.-J. Lipid. Res.—1993, 34:167-179).
The HepG2 cells are cultured in Dulbecco's modified Eagle's medium comprising 10% foetal calf serum (DMEM and FBS-Gibco) in 96-well plates under an atmosphere of 5% carbon dioxide for 24 hours (about 70% confluence).
The test compounds are dissolved at a concentration of 2 or 10 mM in dimethyl sulfoxide (DMSO). Serial dilutions (1:3.16) are made in DMSO and are added (1:200—Robot Multimek Beckman) to the growth medium (200 microlitres) and then finally incubated for 24 hours in the various wells containing the HepG2 cells.
The 24-hour culture supernatant diluted to 1:5 (phosphate-buffered saline: PBS comprising 1% bovine serum albumin) is tested according to a sandwich-ELISA method specific for human apo B.
The results are expressed in terms of IC50, i.e. the concentration that produces a 50% inhibition of apo B secretion in the HepG2 cells.
Background: ELISA stands for enzyme-linked immunosorbent assay.

Test [2] has as its target T1, microsomal triglyceride transfer protein (MTP) (Mesocricetus auratus, UniProt P55158).
T1 construct: The supernatant comprising the soluble MTP is dialysed; from tissue; host or cells: golden hamster liver microsomes, deoxycholate-solubilised
T1 sequence (P55158 19-895): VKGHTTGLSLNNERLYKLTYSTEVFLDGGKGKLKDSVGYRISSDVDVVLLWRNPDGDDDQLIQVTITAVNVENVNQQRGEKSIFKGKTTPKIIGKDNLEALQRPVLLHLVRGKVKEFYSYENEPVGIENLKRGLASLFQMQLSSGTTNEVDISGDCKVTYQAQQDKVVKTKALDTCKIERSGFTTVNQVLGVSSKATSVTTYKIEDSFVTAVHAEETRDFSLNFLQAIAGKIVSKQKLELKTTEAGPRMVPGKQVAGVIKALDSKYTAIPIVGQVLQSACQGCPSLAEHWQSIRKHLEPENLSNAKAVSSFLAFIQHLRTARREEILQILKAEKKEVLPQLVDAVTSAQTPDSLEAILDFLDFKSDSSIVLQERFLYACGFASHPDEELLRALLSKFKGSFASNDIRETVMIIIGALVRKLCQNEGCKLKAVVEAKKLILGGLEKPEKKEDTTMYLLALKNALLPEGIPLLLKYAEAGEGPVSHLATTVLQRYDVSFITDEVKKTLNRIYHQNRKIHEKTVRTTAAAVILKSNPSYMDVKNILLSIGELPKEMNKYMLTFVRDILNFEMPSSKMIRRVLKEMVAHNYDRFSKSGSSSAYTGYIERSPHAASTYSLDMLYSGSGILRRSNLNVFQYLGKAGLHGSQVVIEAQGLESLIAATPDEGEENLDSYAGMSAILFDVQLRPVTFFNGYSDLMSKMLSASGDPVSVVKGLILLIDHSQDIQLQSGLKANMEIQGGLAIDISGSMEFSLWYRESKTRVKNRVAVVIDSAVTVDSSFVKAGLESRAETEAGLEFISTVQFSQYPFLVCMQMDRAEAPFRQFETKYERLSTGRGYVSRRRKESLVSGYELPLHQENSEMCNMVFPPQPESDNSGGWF
T1 sequence (Q8R4U2 20-509 partner): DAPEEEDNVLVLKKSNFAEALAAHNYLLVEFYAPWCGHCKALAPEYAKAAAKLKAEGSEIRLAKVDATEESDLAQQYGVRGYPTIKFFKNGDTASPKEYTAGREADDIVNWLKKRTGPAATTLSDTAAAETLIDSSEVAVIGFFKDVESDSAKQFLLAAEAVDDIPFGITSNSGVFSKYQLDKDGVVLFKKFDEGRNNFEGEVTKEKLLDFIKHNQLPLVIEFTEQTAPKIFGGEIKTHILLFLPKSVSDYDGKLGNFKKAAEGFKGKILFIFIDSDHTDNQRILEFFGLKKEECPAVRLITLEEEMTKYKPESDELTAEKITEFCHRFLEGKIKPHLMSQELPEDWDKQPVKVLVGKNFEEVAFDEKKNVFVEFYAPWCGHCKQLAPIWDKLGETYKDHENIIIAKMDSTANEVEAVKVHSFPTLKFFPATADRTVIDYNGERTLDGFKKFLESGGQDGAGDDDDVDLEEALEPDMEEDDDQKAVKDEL
Briefly: Inhibition of MTP activity: transfer of [3H]-triolein from donor liposomes to biotinylated LDL (SPA). Conditions: MTP from golden hamster liver microsomes; incubation 18-24 hours at 37° C.; read-out: IC50 (concentration that allows a 50% inhibition of MTP). The test is classed as biochemical. The procedure:
Analysis of the Inhibition of MTP Activity
The inhibition of the activity of microsomal triglyceride transfer protein (MTP) was tested by using the following operating protocol.
The inhibition of MTP activity with a compound can be quantified by observing the inhibition of the transfer of a labelled triglyceride, from a donor particle to an acceptor particle, in the presence of MTP. The procedure for the preparation of MTP is based on the method by Wetterau and Zilversmit (Biochem. Biophys. Acta (1986) 875: 610). A few grams of golden hamster liver are taken and then rinsed several times in a 250 mM sucrose solution at 0° C. All the following steps proceed at +4° C. A homogenate at a concentration of 50% in 250 mM sucrose is prepared using a Teflon mill and then centrifuged for 10 minutes at 10 000×g at +4° C. The supernatant is then centrifuged at 105 000×g for 75 minutes at +4° C. The supernatant is discarded and the microsomal pellet is taken up in 3 ml (per g of starting liver) of Tris/HCl 150 mM pH 8.0. 1 ml aliquot fractions are stored at −80° C. until the time of use.
After thawing a fraction of microsomes (1 ml), 12 ml of refrigerated Tris/HCl 50 mM, KCl 50 mM, MgCl2 5 mM pH 7.4 buffers and 1.2 ml of deoxycholate (0.54% in water) are added. After incubation for 30 minutes at +4° C. with gentle agitation, the suspension is centrifuged at 105 000×g for 75 minutes. The supernatant comprising the soluble MTP is dialysed against Tris/HCl 150 mM, NaCl 40 mM, EDTA 1 mM, 0.02% sodium azide pH 7.4 buffer (5 times one litre over 2-3 days). The MTP is stored at +4° C., is stable for at least 30 days and is used in unmodified form in the test.
The donor particles (liposomes) are prepared from 208 μl of L-phosphatidylcholine at a concentration of 10 mg/ml in chloroform, and 480 μl of [3H]-triolein at a concentration of 0.5 mCi/ml in toluene. After stirring, the solution is evaporated under nitrogen, taken up in 6 ml of Tris/HCl 50 mM, KCl 50 mM, MgCl2 5 mM pH 7.4 buffer and incubated in an ultrasound bath for 30 minutes at room temperature. The liposomes are stored at +4° C. and sonicated again for 10 minutes before each use.
The acceptor particles are biotinylated low density lipoproteins (LDL-biot). These particles are supplied by the company Amersham.
The reaction mixture is prepared in untreated ½ well white plates (Corning Costar) by addition, in the following order, of: 5 μl of HEPES 50 mM, NaCl 150 mM, BSA 0.1% (w/v), 0.05% sodium azide (w/v), pH 7.4 buffer; 5 μl of liposomes; 5 μl of LDL-biot; 5 μl of test products in DMSO; 5 μl of MTP. After incubation for 18-24 hours at 37° C., the reaction is stopped by adding 100 μl of Amersham SPA (Scintillation Proximity Assay) beads coupled to streptavidin, and the radioactivity is counted using a Top Count (Packard) at least one hour later. The inhibition of the transfer of the triglycerides with a compound is reflected by a reduction in the transferred radioactivity.
The results are expressed in terms of the IC50, i.e. the concentration that allows a 50% inhibition of MTP.
Background: Microsomes from liver hold many membrane-bound enzymes, among them those of drug oxidation.

On to `CC(C)Cc1ccc(-c2ccccc2C(=O)Nc2ccc3c(c2)OC(F)(F)O3)cc1` [Example 57, 4′-isobutylbiphenyl-2-carboxylic acid (2,2-difluorobenzo[1,3]dioxol-5-yl)-amide], for which the IC50 in test [1] was 219 nM.

With `O=C(Nc1ccc2c(c1)OC(F)(F)O2)c1ccccc1-c1ccc(OC(F)(F)F)cc1` [Example 40, 5-(4′-trifluoromethoxybiphen-2-ylcarbonylamino)-2,2-difluorobenzo[1,3]-dioxole], in test [2], the IC50 came to 220 nM.

For the compound `Cc1cccc(-c2ccc(OC(F)(F)F)cc2)c1C(=O)Nc1ccc2c(c1)OC(F)(F)O2` [Example 49, 5-(4′-trifluoromethoxy-3-methylbiphen-2-ylcarbonylamino)-2,2-difluorobenzo[1,3]dioxole], the IC50 was 136 nM in test [2] and 302 nM in test [1].

As to `O=C(Nc1ccc2c(c1)OC(F)(F)O2)c1ccccc1-c1ccc(CCO)cc1` [Example 53, 4′-(2-hydroxyethyl)biphenyl-2-carboxylic acid (2,2-difluorobenzo[1,3]-dioxol-5-yl)amide], in test [1], the IC50 was 195 nM.

On to `CC(C)c1ccc(-c2ccccc2C(=O)Nc2ccc3c(c2)OC(F)(F)O3)cc1` [Example 33, (4′-isopropylbiphen-2-yl)-N-(2,2-difluorobenzo[1,3]dioxol-5-yl)carboxamide], for which the IC50 came out at 230 nM in test [2] and 68 nM in test [1].

Turning to `Cc1cccc(C(=O)Nc2ccc3c(c2)OC(F)(F)O3)c1-c1ccc(CCOCc2ccccc2)cc1` [Example 93, 4′-(2-benzyloxyethyl)-6-methylbiphenyl-2-carboxylic acid (2,2-difluorobenzo[1,3]dioxol-5-yl)amide], the IC50 in test [2] turned out to be 61 nM; in test [1] it was 65 nM.

Take `CCNC(=O)OCCc1ccc(-c2ccccc2C(=O)Nc2ccc3c(c2)OC(F)(F)O3)cc1` [Example 48, 5-(4′-ethylaminocarbonyloxyethylbiphen-2-ylcarbonylamino)-2,2-difluorobenzo[1,3]dioxole]: the IC50 in test [2] stood at 340 nM.

With `CC(C)c1ccc(-c2ccccc2C(=O)Nc2ccc3c(c2)OCO3)cc1` [Example 41, 5-(4′-isopropylbiphen-2-ylcarbonylamino)benzo[1,3]dioxole], the IC50 in test [1] is 129 nM.

With `CCNC(=O)OCCc1ccc(-c2c(C)cccc2C(=O)Nc2ccc3c(c2)OC(F)(F)O3)cc1` [Example 98], the IC50 in test [2] is 312 nM.

In the case of `CC(C)c1ccc(-c2c(Cl)cccc2C(=O)Nc2ccc3c(c2)OC(F)(F)O3)cc1` [Example 90], the values for the IC50 in test [2] and in test [1] were 44 nM and 30 nM, respectively.

`O=C(Nc1ccc2c(c1)OCO2)c1ccccc1-c1ccc(OC(F)(F)F)cc1` [Example 51, 4′-trifluoromethoxybiphenyl-2-carboxylic acid benzo[1,3]dioxol-5-ylamide]: in test [1], the IC50 came out at 72 nM.

`CC(C)=Cc1ccc(-c2ccccc2C(=O)Nc2ccc3c(c2)OC(F)(F)O3)cc1` [Example 69, 4′-(2-methylpropenyl)biphenyl-2-carboxylic acid (2,2-difluorobenzo[1,3]-dioxol-5-yl)amide]: the IC50 in test [1] is 288 nM.

With `COc1cccc(C(=O)Nc2ccc3c(c2)OC(F)(F)O3)c1-c1ccc(OC(F)(F)F)cc1` [Example 94], the values for the IC50 in test [2] and in test [1] were 193 nM and 66 nM, respectively.

As for `CCNC(=O)OCC1COc2ccc(NC(=O)c3ccccc3-c3ccc(C(C)C)cc3)cc2O1` (stereo not drawn) [Example 21, 7-[(4′-isopropylbiphenyl-2-carbonyl)amino]-2,3-dihydrobenzo[1,4]dioxin-2-ylmethyl ethylcarbamate], the IC50 in test [1] came out at 197 nM.

In the case of `CCc1ccc(-c2ccccc2C(=O)Nc2ccc3c(c2)OC(F)(F)O3)cc1` [Example 32, 4′-ethylbiphenyl-2-carboxylic acid (2,2-difluorobenzo[1,3]dioxol-5-yl)-amide], the IC50 in test [1] was found to be 97 nM.

Take `CCc1ccc(-c2cccc(C)c2C(=O)Nc2ccc3c(c2)OC(F)(F)O3)cc1` [Example 42, 5-(4′-ethyl-3-methylbiphen-2-ylcarbonylamino)-2,2-difluorobenzo[1,3]-dioxole]: the IC50 in test [2] came to 270 nM.

For the compound `COCC1COc2ccc(NC(=O)c3ccccc3-c3ccc(C(C)C)cc3)cc2O1` (stereo not drawn) [Example 20, 4′-isopropylbiphenyl-2-carboxylic acid (3-methoxymethyl-2,3-dihydrobenzo[1,4]dioxin-6-yl)amide], the IC50 in test [1] worked out at 65 nM.

Turning to `O=C(Nc1ccc2c(c1)OC(F)(F)O2)c1cccc(Cl)c1-c1ccc(OC(F)(F)F)cc1` [Example 91], the IC50 in test [2] was found to be 223 nM; in test [1] it was 213 nM.

(Values after patent US20060058372A1, “N-Benzodioxolyl, n-benzodioxanyl and n-benzodioxepinyl arylcarboxamide derivatives and pharmaceutical compositions comprising them” (priority 2002, published 2006).)
